# Data from ChEMBL document CHEMBL5724914, “Linking interpersonal differences in gut microbiota composition and drug biotransformation activity” (2024).
# Assay: (§1) The drug is tested on Z-025 corresponding to rabbit gut metagenome with ENA study accession number: PRJEB37062 and ENA sample accession number: ERS12561824 for biotransformation under anaerobic condition. The drug concentrations were measured over 9 timepoints collected between 0 and 24 hours of incubation by liquid-chromatography-coupled mass spectrometry (LC–MS)
# Details: 2 µM
# Also: call rule not given here.
row,Bacterial Biotransformation,Compound
1,Compound NOT metabolized,c1ccc2[nH]c(-c3cscn3)nc2c1 [THIABENDAZOLE]
2,Compound NOT metabolized,CCN(CC)CCNC(=O)c1cc(S(C)(=O)=O)ccc1OC [TIAPRIDE]

# Assay: as §1, with “Z-023” for “Z-025”, “to” for “to rabbit gut”, “ERS12561822” for “ERS12561824”
# Details: 2 µM
row,Bacterial Biotransformation,Compound
1,Compound NOT metabolized,c1ccc2[nH]c(-c3cscn3)nc2c1 [THIABENDAZOLE]
2,Compound NOT metabolized,CCN(CC)CCNC(=O)c1cc(S(C)(=O)=O)ccc1OC [TIAPRIDE]

# Assay: as §1, with “Z-022” for “Z-025”, “mouse” for “rabbit”, “ERS12561821” for “ERS12561824”
# Details: 2 µM
row,Bacterial Biotransformation,Compound
1,Compound NOT metabolized,c1ccc2[nH]c(-c3cscn3)nc2c1 [THIABENDAZOLE]
2,Compound NOT metabolized,CCN(CC)CCNC(=O)c1cc(S(C)(=O)=O)ccc1OC [TIAPRIDE]

# Assay: as §1, with “Z-013” for “Z-025”, “ERS12561813” for “ERS12561824”
# Details: 2 µM
row,Bacterial Biotransformation,Compound
1,Compound NOT metabolized,c1ccc2[nH]c(-c3cscn3)nc2c1 [THIABENDAZOLE]
2,Compound NOT metabolized,CCN(CC)CCNC(=O)c1cc(S(C)(=O)=O)ccc1OC [TIAPRIDE]

# Assay: as §1, with “Z-009” for “Z-025”, “pig” for “rabbit”, “ERS12561809” for “ERS12561824”
# Details: 2 µM
row,Bacterial Biotransformation,Compound
1,Compound NOT metabolized,c1ccc2[nH]c(-c3cscn3)nc2c1 [THIABENDAZOLE]
2,Compound NOT metabolized,CCN(CC)CCNC(=O)c1cc(S(C)(=O)=O)ccc1OC [TIAPRIDE]

# Assay: as §1, with “Z-007” for “Z-025”, “rat” for “rabbit”, “ERS12561807” for “ERS12561824”
# Details: 2 µM
row,Bacterial Biotransformation,Compound
1,Compound NOT metabolized,c1ccc2[nH]c(-c3cscn3)nc2c1 [THIABENDAZOLE]
2,Compound NOT metabolized,CCN(CC)CCNC(=O)c1cc(S(C)(=O)=O)ccc1OC [TIAPRIDE]

# Assay: as §1, with “Z-006” for “Z-025”, “mouse” for “rabbit”, “ERS12561806” for “ERS12561824”
# Details: 2 µM
row,Bacterial Biotransformation,Compound
1,Compound NOT metabolized,c1ccc2[nH]c(-c3cscn3)nc2c1 [THIABENDAZOLE]
2,Compound NOT metabolized,CCN(CC)CCNC(=O)c1cc(S(C)(=O)=O)ccc1OC [TIAPRIDE]

# Assay: as §1, with “Z-004” for “Z-025”, “to” for “to rabbit gut”, “ERS12561804” for “ERS12561824”
# Details: 2 µM
row,Bacterial Biotransformation,Compound
1,Compound NOT metabolized,c1ccc2[nH]c(-c3cscn3)nc2c1 [THIABENDAZOLE]
2,Compound NOT metabolized,CCN(CC)CCNC(=O)c1cc(S(C)(=O)=O)ccc1OC [TIAPRIDE]

# Assay: as §1, with “WLS-350” for “Z-025”, “human” for “rabbit”, “ERS12561789” for “ERS12561824”
# Details: 2 µM
row,Bacterial Biotransformation,Compound
1,Compound NOT metabolized,c1ccc2[nH]c(-c3cscn3)nc2c1 [THIABENDAZOLE]
2,Compound NOT metabolized,CCN(CC)CCNC(=O)c1cc(S(C)(=O)=O)ccc1OC [TIAPRIDE]

# Assay: as §1, with “WLS-073” for “Z-025”, “human” for “rabbit”, “ERS12561749” for “ERS12561824”
# Details: 2 µM
row,Bacterial Biotransformation,Compound
1,Compound NOT metabolized,c1ccc2[nH]c(-c3cscn3)nc2c1 [THIABENDAZOLE]
2,Compound NOT metabolized,CCN(CC)CCNC(=O)c1cc(S(C)(=O)=O)ccc1OC [TIAPRIDE]

# Assay: as §1, with “WLS-052” for “Z-025”, “human” for “rabbit”, “ERS12561747” for “ERS12561824”
# Details: 2 µM
row,Bacterial Biotransformation,Compound
1,Compound NOT metabolized,c1ccc2[nH]c(-c3cscn3)nc2c1 [THIABENDAZOLE]
2,Compound NOT metabolized,CCN(CC)CCNC(=O)c1cc(S(C)(=O)=O)ccc1OC [TIAPRIDE]

# Assay: as §1, with “WLS-010” for “Z-025”, “human” for “rabbit”, “ERS12561743” for “ERS12561824”
# Details: 2 µM
row,Bacterial Biotransformation,Compound
1,Compound NOT metabolized,c1ccc2[nH]c(-c3cscn3)nc2c1 [THIABENDAZOLE]
2,Compound NOT metabolized,CCN(CC)CCNC(=O)c1cc(S(C)(=O)=O)ccc1OC [TIAPRIDE]

# Details: human gut metagenome, 24 h, 2 µM
row,Bacterial Biotransformation,Compound
1,Compound NOT metabolized,c1ccc2[nH]c(-c3cscn3)nc2c1 [THIABENDAZOLE]
2,Compound NOT metabolized,CCN(CC)CCNC(=O)c1cc(S(C)(=O)=O)ccc1OC [TIAPRIDE]

# Details: human gut metagenome, 24 h, 2 µM
# Remark: another data set of the same source
row,Bacterial Biotransformation,Compound
1,Compound NOT metabolized,c1ccc2[nH]c(-c3cscn3)nc2c1 [THIABENDAZOLE]
2,Compound NOT metabolized,CCN(CC)CCNC(=O)c1cc(S(C)(=O)=O)ccc1OC [TIAPRIDE]

# Details: human gut metagenome, 24 h, 2 µM
# Remark: another data set of the same source
row,Bacterial Biotransformation,Compound
1,Compound NOT metabolized,c1ccc2[nH]c(-c3cscn3)nc2c1 [THIABENDAZOLE]
2,Compound NOT metabolized,CCN(CC)CCNC(=O)c1cc(S(C)(=O)=O)ccc1OC [TIAPRIDE]

# Details: human gut metagenome, 24 h, 2 µM
# Remark: another data set of the same source
row,Bacterial Biotransformation,Compound
1,Compound NOT metabolized,c1ccc2[nH]c(-c3cscn3)nc2c1 [THIABENDAZOLE]
2,Compound NOT metabolized,CCN(CC)CCNC(=O)c1cc(S(C)(=O)=O)ccc1OC [TIAPRIDE]

# Details: human gut metagenome, 24 h, 2 µM
# Remark: another data set of the same source
row,Bacterial Biotransformation,Compound
1,Compound metabolized,c1ccc2[nH]c(-c3cscn3)nc2c1 [THIABENDAZOLE]
2,Compound metabolized,CCN(CC)CCNC(=O)c1cc(S(C)(=O)=O)ccc1OC [TIAPRIDE]

# Details: human gut metagenome, 24 h, 2 µM
# Remark: another data set of the same source
row,Bacterial Biotransformation,Compound
1,Compound NOT metabolized,c1ccc2[nH]c(-c3cscn3)nc2c1 [THIABENDAZOLE]
2,Compound NOT metabolized,CCN(CC)CCNC(=O)c1cc(S(C)(=O)=O)ccc1OC [TIAPRIDE]

# Details: human gut metagenome, 24 h, 2 µM
# Remark: another data set of the same source
row,Bacterial Biotransformation,Compound
1,Compound NOT metabolized,c1ccc2[nH]c(-c3cscn3)nc2c1 [THIABENDAZOLE]
2,Compound NOT metabolized,CCN(CC)CCNC(=O)c1cc(S(C)(=O)=O)ccc1OC [TIAPRIDE]

# Details: human gut metagenome, 24 h, 2 µM
# Remark: another data set of the same source
row,Bacterial Biotransformation,Compound
1,Compound metabolized,c1ccc2[nH]c(-c3cscn3)nc2c1 [THIABENDAZOLE]
2,Compound metabolized,CCN(CC)CCNC(=O)c1cc(S(C)(=O)=O)ccc1OC [TIAPRIDE]
